Assay: solvent given as SMILES
[1] = in O=P(c1ccccc1)(c1ccccc1)c1ccccc1Oc1ccccc1P(=O)(c1ccccc1)c1ccccc1

Cc1cc(-c2ccc(-n3c4ccccc4c4ccccc43)cc2)nc(-c2ccc(-n3c4ccccc4c4ccccc43)cc2)n1 showed an emission maximum (in C1CCOC1) of 423 nm, an emission maximum (in CN(C)C=O) of 461 nm and an emission maximum (in Cc1ccccc1) of 398 nm. The emission maximum (in ClC(Cl)Cl) was 426 nm.

With B1C=Cc2ccc3ccccc3c2N1 the emission maximum (in C1CCCCC1) was 371 nm.

Compound O=C1NC(c2ccccc2)=C/C1=C\c1ccccc1 has an emission maximum (in C1COCCO1) of 539 nm.

With c1ccc(C2CCN3COc4c5ccccc5c5c6c7c(c2c3c46)C(c2ccccc2)CCN7CO5)cc1 (stereo unspecified) the emission maximum (in C1CCCCC1) was 535 nm, the emission maximum (in C1CCOC1) was 583 nm and the emission maximum (in C1COCCO1) was 577 nm. It also gave an emission maximum (in CC#N) of 610 nm, an emission maximum (in CC(C)=O) of 603 nm and an emission maximum (in CCOC(C)=O) of 584 nm. For the same compound, the emission maximum (in CCOCC) was 562 nm, the emission maximum (in CN(C)C=O) was 612 nm and the emission maximum (in CO) was 598 nm. For the same compound, the emission maximum (in CS(C)=O) was 618 nm, the emission maximum (in Cc1ccccc1) was 565 nm and the emission maximum (in ClC(Cl)Cl) was 596 nm. The emission maximum (in ClCCl) was 600 nm.

Compound C1=C(c2ccccc2)[Si](c2ccccc2)(c2ccccc2)c2ccccc21 has an emission maximum (in ClCCl) of 400 nm.

In the case of COCCOCCOCN1C(=O)c2ccc3c(-c4ccccc4)c4c5ccc6c7c(ccc(c(-c8ccccc8)c4c4ccc(c2c34)C1=O)c75)C(=O)N(COCCOCCOC)C6=O, the emission maximum (in ClCCl) is reported as 695 nm.

Compound CC(C)(C)c1ccc(-c2c(-c3cccc(N(c4ccccc4)c4ccccc4)c3)c(C#N)c(-c3cccc(N(c4ccccc4)c4ccccc4)c3)c(-c3ccc(C(C)(C)C)cc3)c2-c2ccc(C(C)(C)C)cc2)cc1 has an emission maximum (in C1CCOC1) of 448 nm.

COc1ccc(C2=[N+]3C(=Nc4c(-c5ccccc5)c(Br)c(-c5ccc(OC)cc5)n4[B-]3(F)F)C(c3ccccc3)=C2Br)cc1 gave an emission maximum (in ClC(Cl)Cl) of 714 nm and an emission maximum (in ClCCl) of 714 nm.

COc1cc2c(cc1OC)C1=C[C@H](c3ccc(C)cc3)C3(C(C#N)=C(C#N)N1CC2)c1cc(Br)ccc1-c1ccc(Br)cc13 showed an emission maximum (in ClCCl) of 405 nm.

With F[B-]1(F)n2cccc2C(c2ccccc2)=C2C=CC(c3cccc(OC4=[N+]5C(=C(c6ccccc6)c6cc(Br)c(Br)n6[B-]5(F)F)C=C4Br)c3)=[N+]21 the emission maximum (in ClC(Cl)Cl) was 568 nm.

CCOC(=O)c1c(C=Cc2ccccc2)oc(NC2CCCCC2)c1C(=O)OCC showed an emission maximum (in CC#N) of 460 nm.

Compound CCN1c2ccc(/C=N/Nc3ccccn3)cc2Sc2cc(-c3cccc4ccccc34)ccc21 has an emission maximum (in C1CCOC1) of 487 nm, an emission maximum (in CS(C)=O) of 498 nm and an emission maximum (in Cc1ccccc1) of 482 nm. For the same compound, the emission maximum (in ClCCl) was 491 nm.

Work on CC(C)[Si](C#Cc1c2ccc(C(C)(C)C)cc2c(C#C[Si](C(C)C)(C(C)C)C(C)C)c2ccc(C(C)(C)C)cc12)(C(C)C)C(C)C yielded an emission maximum (in Cc1ccccc1) of 461 nm.

Work on CN(C)c1cccc2c1C(=O)c1ccccc1-2 yielded an emission maximum (in C1CCCCC1) of 498 nm, an emission maximum (in CC#N) of 534 nm and an emission maximum (in CCO) of 541 nm. The emission maximum (in c1ccccc1) was 520 nm.

CC1(C)c2ccccc2N(c2ccccc2)c2ccc(-c3ccc(-c4ccc5c(c4)C(C)(C)c4ccccc4N5c4ccccc4)c4nsnc34)cc21 gave an emission maximum (in Cc1ccccc1) of 596.02 nm and an emission maximum (in c1ccc2c(c1)c1ccccc1n2-c1ccc(-c2ccc(-n3c4ccccc4c4ccccc43)cc2)cc1) of 588 nm.

CN(C)c1ccc(/C=C/c2ccc([N+](=O)[O-])c(O)c2)cc1 gave an emission maximum (in C1CCCCC1) of 529 nm, an emission maximum (in C1COCCO1) of 633 nm and an emission maximum (in CCCCCCC) of 523 nm. It also gave an emission maximum (in Cc1ccccc1) of 605 nm.

With c1ccc2cc(-c3cc(-c4nccs4)nc(-c4nccs4)c3)ccc2c1 the emission maximum (in CC#N) was 385 nm, the emission maximum (in CCCCCC) was 361 nm and the emission maximum (in CO) was 392 nm. The emission maximum (in ClC(Cl)Cl) was 372 nm.

Cc1nnc(-c2ccc(-n3c4ccccc4c4ccccc43)cc2)o1 showed an emission maximum (in CCO) of 440 nm and an emission maximum (in Cc1ccccc1) of 372 nm.

COC(=O)c1ccc2ccc3cccc4ccc1c2c34 showed an emission maximum (in C1CCOC1) of 388 nm, an emission maximum (in CC#N) of 389 nm and an emission maximum (in CCCCCC) of 385 nm. For the same compound, the emission maximum (in CCO) was 391 nm, the emission maximum (in CN(C)C=O) was 391 nm and the emission maximum (in CO) was 392 nm. It also gave an emission maximum (in Cc1ccccc1) of 390 nm and an emission maximum (in ClCCl) of 390 nm.

CN1C(=CC2=C([S-])C(=Cc3sc4ccccc4[n+]3C)C2=O)C(C)(C)c2ccccc21 gave an emission maximum (in ClC(Cl)Cl) of 676 nm.

CCn1c2cc(OC)ccc2c2c3nsnc3c3c4ccc(OC)cc4n(CC)c3c21 gave an emission maximum (in CN(C)C=O) of 557 nm, an emission maximum (in Cc1ccccc1) of 517 nm and an emission maximum (in ClCCl) of 553 nm.

In the case of c1cc2c3c(cccc3c1)-c1cc3c(ccc4ccccc43)cc1-2, the emission maximum (in CCCCCCC) is reported as 410 nm.

In the case of Cc1ccc(C(=O)c2c(C)c3ccc4cccc5c6cccc7ccc2c(c76)c3c45)cc1, the emission maximum (in ClCCl) is reported as 450 nm.

In the case of CCC1=C(CC)c2cccc3c2c(cc2nc4ccccc4nc23)O1, the emission maximum (in ClCCl) is reported as 563 nm.

With CC(C)(C)c1ccc2c(c1)c1cc(C(C)(C)C)ccc1n2-c1ccc(C#Cc2ccc(C#Cc3ccc(-n4c5ccc(C(C)(C)C)cc5c5cc(C(C)(C)C)ccc54)cc3)cc2)cc1 the emission maximum (in CC#N) was 470 nm, the emission maximum (in CCCCC) was 385 nm and the emission maximum (in CO) was 453 nm. For the same compound, the emission maximum (in Cc1ccccc1) was 400 nm, the emission maximum (in ClC(Cl)Cl) was 419 nm and the emission maximum (in ClCCl) was 437 nm.

In the case of F[B-]1(F)n2c(-c3ccccc3)cnc2-c2cccc[n+]21, the emission maximum (in C1CCCCC1) is reported as 486 nm, the emission maximum (in C1CCOC1) is reported as 509 nm and the emission maximum (in C1COCCO1) is reported as 509 nm. For the same compound, the emission maximum (in CC#N) was 514 nm, the emission maximum (in CCCCCC) was 487 nm and the emission maximum (in CO) was 503 nm. It also gave an emission maximum (in ClC(Cl)Cl) of 501 nm.

For C[Si]1(c2ccccc2)C(c2ccc(-n3c4ccccc4c4ccccc43)cc2)=C(c2ccccc2)C(c2ccccc2)=C1c1ccc(-n2c3ccccc3c3ccccc32)cc1, the emission maximum (in C1CCOC1) was 520 nm.

For CN(C)c1ccc2c3c(c(=O)oc2c1)C=c1cc2c(cc1O3)=[N+](CCC(=O)O)CCC2, the emission maximum (in CC#N) was 644 nm, the emission maximum (in CO) was 640 nm and the emission maximum (in ClCCl) was 638 nm. It also gave an emission maximum (in O) of 641 nm.

Compound COc1ccc(C#Cc2ncc(-c3ccccc3)o2)cc1OC has an emission maximum (in ClCCl) of 390 nm.

CN(C)c1ccc2[c](c1)[Ge]([CH3])([CH3])[C]1=CC(=[N+](C)C)C=CC1=C2 gave an emission maximum (in O) of 634 nm.

Work on Cc1ccc(-n2c(-c3ccccc3NS(=O)(=O)c3ccc(C)cc3)nc3c4ccccc4c4ccccc4c32)cc1 yielded an emission maximum (in Cc1ccccc1) of 365 nm.

COc1ccc(/C=N/c2cc(C(C)C)c(O)cc2C)cc1 showed an emission maximum (in C1CCCCC1) of 404 nm, an emission maximum (in C1CCOC1) of 408 nm and an emission maximum (in C1COCCO1) of 407 nm. It also gave an emission maximum (in CC#N) of 411 nm, an emission maximum (in CC(C)(C)O) of 411 nm and an emission maximum (in CC(C)O) of 413 nm. For the same compound, the emission maximum (in CCCCCC) was 401 nm, the emission maximum (in CCCCO) was 414 nm and the emission maximum (in CCO) was 414 nm. For the same compound, the emission maximum (in CCOC(C)=O) was 407 nm, the emission maximum (in CN(C)C=O) was 413 nm and the emission maximum (in CO) was 417 nm. The emission maximum (in CS(C)=O) was 417 nm, the emission maximum (in ClC(Cl)Cl) was 413 nm and the emission maximum (in ClCCl) was 413 nm. It also gave an emission maximum (in O) of 440 nm and an emission maximum (in OCCO) of 426 nm.

Compound Cc1cc(C)c(B(c2c(C)cc(C)cc2C)c2c(C)cc(-n3c4ccc(N(c5ccccc5)c5ccccc5)cc4c4cc(N(c5ccccc5)c5ccccc5)ccc43)cc2C)c(C)c1 has an emission maximum (in Cc1ccccc1) of 495 nm and an emission maximum [1] of 487 nm.

For CCN(CC)c1ccc2c(c1)oc(=O)c1cnc3c(cnn3-c3ccccc3)c12, the emission maximum (in ClCCl) was 441 nm.

In the case of CC(C)(C)C1Nc2ccccc2C(=O)N1Cc1ccccc1 (stereo unspecified), the emission maximum (in CC#N) is reported as 409 nm, the emission maximum (in CCCCCCCCCCCCCCCC) is reported as 381 nm and the emission maximum (in CO) is reported as 439 nm. For the same compound, the emission maximum (in ClC(Cl)Cl) was 404 nm and the emission maximum (in c1ccccc1) was 393 nm.

COc1ccc2c(c1)-c1cc(OC)ccc1C2=O gave an emission maximum (in C1CCCCC1) of 490 nm, an emission maximum (in CC#N) of 514 nm and an emission maximum (in CCO) of 552 nm.

C1=C(c2ccccc2)B(c2ccccc2)Nc2c1ccc1ccccc21 gave an emission maximum (in C1CCCCC1) of 396 nm.

In the case of O=S1(=O)C2=C(c3ccccc31)C1(C3=C(c4ccccc41)S(=O)(=O)c1ccccc13)c1ccccc12, the emission maximum (in ClCCl) is reported as 444 nm.

With Cn1c2ccccc2c(=O)c2ccccc21 the emission maximum (in CS(C)=O) was 417 nm and the emission maximum (in O) was 430 nm.

Compound c1ccc(-c2nc(-c3ccccc3)nc(-c3ccc(-n4c5ccccc5c5c6oc7ccccc7c6ccc54)cc3)n2)cc1 has an emission maximum (in C1CCCCC1) of 393.5 nm, an emission maximum (in C1CCOC1) of 473.68 nm and an emission maximum (in Cc1ccccc1) of 430.34 nm. The emission maximum [1] was 429.14 nm.

Compound Cc1cc(C)c(B(c2ccccc2N(c2ccccc2)c2ccccc2)c2c(C)cc(C)cc2C)c(C)c1 has an emission maximum (in CC(C)=O) of 532.95 nm, an emission maximum (in Cc1ccccc1) of 498 nm and an emission maximum (in ClCCl) of 518.5 nm.

In the case of CCC1=C(C)C2=Cc3c4ccccc4c4n3[B-](c3ccc5ccc6cccc7ccc3c5c67)(Oc3ccccc3-4)[N+]2=C1C (stereo unspecified), the emission maximum (in CC#N) is reported as 635 nm, the emission maximum (in CCCCCC) is reported as 638 nm and the emission maximum (in Cc1ccccc1) is reported as 642 nm. For the same compound, the emission maximum (in ClCCl) was 640 nm.

O=P(c1ccccc1)(c1ccccc1)c1cccc(-c2nc3ccccc3n2-c2cccc(P(=O)(c3ccccc3)c3ccccc3)c2)c1 showed an emission maximum (in ClCCl) of 376 nm.

C(C#Cc1ccc2ccc3cccc4ccc1c2c34)#Cc1cccc2ccccc12 gave an emission maximum (in C1CCCCC1) of 411 nm, an emission maximum (in CC#N) of 420 nm and an emission maximum (in CO) of 414 nm. It also gave an emission maximum (in ClCCl) of 420 nm.

For CC1=[N+]2C(=C(c3ccc(Br)cc3)c3ccc(C)n3[B-]2(F)F)C=C1c1cc2n(c1)[B-](F)(F)[N+]1=CC=CC1=C2c1c(C)cc(C)cc1C, the emission maximum (in C1CCCCC1) was 642 nm and the emission maximum (in CCOC(C)=O) was 670 nm.

N#Cc1c(-n2c3ccccc3c3cc(I)ccc32)c(C#N)c(-n2c3ccccc3c3cc(I)ccc32)c(-n2c3ccccc3c3cc(I)ccc32)c1-n1c2ccccc2c2cc(I)ccc21 gave an emission maximum (in Cc1ccccc1) of 518 nm.

In the case of O=C1[C@@H]2[C@H](C(=O)N1c1ccc3cc4ccccc4cc3c1)[C@@H]1C=C[C@H]2C1, the emission maximum (in ClC(Cl)Cl) is reported as 386 nm.

O=c1c2cc(C#Cc3ccccc3)ccc2nc2ccc(C#Cc3ccccc3)cn12 gave an emission maximum (in ClCCl) of 478 nm.

O=c1c2cc(Cl)ccc2nc2n1[B-](F)(F)[n+]1ccccc1-2 showed an emission maximum (in CC#N) of 439 nm and an emission maximum (in ClCCl) of 444 nm.

Compound C(S/C=C/c1ccc(-c2ccc(/C=C/SC=C3CCCCCCC3)cc2)cc1)=C1CCCCCCC1 has an emission maximum (in ClCCl) of 437 nm.

In the case of CC1(C)c2ccccc2-c2cc3c(cc21)c1ccccc1n3-c1cccnc1, the emission maximum (in ClCCl) is reported as 373 nm.

From the Deep4Chem optical property database
